Bridge positions count the residues as written; N and C are the ends. Square brackets hold non-standard residues; d marks the D form. Peptide text beside a SMILES is read from it. ξ: configuration not given here. Thr(3ξ) = CC(O)[C@H](N)C(=O)O; αMeV = CC(C)[C@](C)(N)C(=O)O; Nle = CCCC[C@H](N)C(=O)O
T1: VPAC2 receptor (Homo sapiens, UniProt P41587)
T1 construct: The human T-lymphoid cell line Sup-Ti, which expresses the VPAC2 receptor; host or cells: Sup-T1 (Sup-Ti [sic]) human T-lymphoid cell line
T1 sequence (P41587 24-438): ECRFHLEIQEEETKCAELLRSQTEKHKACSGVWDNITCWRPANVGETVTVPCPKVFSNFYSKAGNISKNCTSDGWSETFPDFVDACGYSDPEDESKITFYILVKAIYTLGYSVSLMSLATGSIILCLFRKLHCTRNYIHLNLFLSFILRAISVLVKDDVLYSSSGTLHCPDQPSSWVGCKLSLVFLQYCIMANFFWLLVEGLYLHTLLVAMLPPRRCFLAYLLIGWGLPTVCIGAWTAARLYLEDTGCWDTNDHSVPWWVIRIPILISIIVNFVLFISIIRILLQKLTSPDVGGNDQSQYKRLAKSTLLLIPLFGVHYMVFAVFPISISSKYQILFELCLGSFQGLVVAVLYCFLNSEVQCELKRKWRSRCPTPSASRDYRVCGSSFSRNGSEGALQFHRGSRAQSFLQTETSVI

T2: human neutrophil elastase (Homo sapiens, UniProt P08246)
T2 sequence (P08246 30-247 limits assumed): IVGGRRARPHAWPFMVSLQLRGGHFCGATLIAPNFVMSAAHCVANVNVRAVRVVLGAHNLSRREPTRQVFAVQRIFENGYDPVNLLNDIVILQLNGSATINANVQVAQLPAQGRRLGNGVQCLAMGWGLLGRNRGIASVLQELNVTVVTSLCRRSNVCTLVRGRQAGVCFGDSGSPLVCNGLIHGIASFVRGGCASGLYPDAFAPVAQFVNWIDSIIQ

T3: VPAC2 receptor (human, UniProt P41587)
T3 sequence: T1 sequence (P41587 24-438)

B1: Ac-His-Ser-Asp-Ala-MeVal-Phe-Thr-Glu-Asn-Tyr-thr-Lys-Leu-Arg-Lys-Gln-Nle-Ala-Ala-Lys-Lys-Tyr-Leu-Asn-Asp-Leu-Leu-Lys-Gly-Gly-Thr-NH2 (peptide)
peptide: Ac-HSDA[αMeV]FTENYTKLRKQ[Nle]AAKKYLNDLLKGGT-NH2
modifications: lactam 21-25; not fully specified (residue 11); printed as Ac-His-Ser-Asp-Ala-MeVal-Phe-Thr-Glu-Asn-Tyr-thr-Lys-Leu-Arg-Lys-Gln-Nle-Ala-Ala-Lys-Lys-Tyr-Leu-Asn-Asp-Leu-Leu-Lys-Gly-Gly-Thr-NH2
B2: Ac-His-Ala-Asp-Ala-MeVal-Phe-Thr-Glu-Asn-Tyr-Thr-Lys-Leu-Arg-Lys-Gln-Nle-Ala-Ala-Lys-Lys-Tyr-Leu-Asn-Asp-Leu-Leu-Lys-Gly-Gly-Thr-NH2 (peptide)
peptide: Ac-HADA[αMeV]FTENYTKLRKQ[Nle]AAKKYLNDLLKGGT-NH2
modifications: lactam 21-25
SMILES: CCCC[C@H](NC(=O)[C@H](CCC(N)=O)NC(=O)[C@H](CCCCN)NC(=O)[C@H](CCCNC(=N)N)NC(=O)[C@H](CC(C)C)NC(=O)[C@H](CCCCN)NC(=O)[C@@H](NC(=O)[C@H](Cc1ccc(O)cc1)NC(=O)[C@H](CC(N)=O)NC(=O)[C@H](CCC(=O)O)NC(=O)[C@@H](NC(=O)[C@H](Cc1ccccc1)NC(=O)[C@@](C)(NC(=O)[C@H](C)NC(=O)[C@H](CC(=O)O)NC(=O)[C@H](C)NC(=O)[C@H](Cc1c[nH]cn1)NC(C)=O)C(C)C)[C@@H](C)O)[C@@H](C)O)C(=O)N[C@@H](C)C(=O)N[C@@H](C)C(=O)N[C@@H](CCCCN)C(=O)N[C@H]1CCCCNC(=O)C[C@@H](C(=O)N[C@@H](CC(C)C)C(=O)N[C@@H](CC(C)C)C(=O)N[C@@H](CCCCN)C(=O)NCC(=O)NCC(=O)N[C@H](C(N)=O)[C@@H](C)O)NC(=O)[C@H](CC(N)=O)NC(=O)[C@H](CC(C)C)NC(=O)[C@H](Cc2ccc(O)cc2)NC1=O
B3: Ac-His-Ala-Asp-Ala-MeVal-Phe-Thr-Glu-Asn-Tyr-Thr-Lys-Leu-Arg-Lys-Gln-Nle-Ala-Ala-Lys-Lys-Tyr-Leu-Asn-Asp-Leu-Lys-Lys-Gly-Gly-Thr-NH2 (peptide)
peptide: Ac-HADA[αMeV]FTENYTKLRKQ[Nle]AAKKYLNDLKKGGT-NH2
modifications: lactam 21-25
SMILES: CCCC[C@H](NC(=O)[C@H](CCC(N)=O)NC(=O)[C@H](CCCCN)NC(=O)[C@H](CCCNC(=N)N)NC(=O)[C@H](CC(C)C)NC(=O)[C@H](CCCCN)NC(=O)[C@@H](NC(=O)[C@H](Cc1ccc(O)cc1)NC(=O)[C@H](CC(N)=O)NC(=O)[C@H](CCC(=O)O)NC(=O)[C@@H](NC(=O)[C@H](Cc1ccccc1)NC(=O)[C@@](C)(NC(=O)[C@H](C)NC(=O)[C@H](CC(=O)O)NC(=O)[C@H](C)NC(=O)[C@H](Cc1c[nH]cn1)NC(C)=O)C(C)C)[C@@H](C)O)[C@@H](C)O)C(=O)N[C@@H](C)C(=O)N[C@@H](C)C(=O)N[C@@H](CCCCN)C(=O)N[C@H]1CCCCNC(=O)C[C@@H](C(=O)N[C@@H](CC(C)C)C(=O)N[C@@H](CCCCN)C(=O)N[C@@H](CCCCN)C(=O)NCC(=O)NCC(=O)N[C@H](C(N)=O)[C@@H](C)O)NC(=O)[C@H](CC(N)=O)NC(=O)[C@H](CC(C)C)NC(=O)[C@H](Cc2ccc(O)cc2)NC1=O
B4: Ac-His-Ser-Asp-Ala-MeVal-Phe-Thr-Glu-Asn-Tyr-Thr-Lys-Leu-Arg-Lys-Arg-Nle-Ala-Ala-Lys-Lys-Tyr-Leu-Asn-Asp-Leu-Lys-Lys-Gly-Gly-Thr-NH2 (peptide)
peptide: Ac-HSDA[αMeV]FTENYTKLRKR[Nle]AAKKYLNDLKKGGT-NH2
modifications: lactam 21-25
SMILES: CCCC[C@H](NC(=O)[C@H](CCCNC(=N)N)NC(=O)[C@H](CCCCN)NC(=O)[C@H](CCCNC(=N)N)NC(=O)[C@H](CC(C)C)NC(=O)[C@H](CCCCN)NC(=O)[C@@H](NC(=O)[C@H](Cc1ccc(O)cc1)NC(=O)[C@H](CC(N)=O)NC(=O)[C@H](CCC(=O)O)NC(=O)[C@@H](NC(=O)[C@H](Cc1ccccc1)NC(=O)[C@@](C)(NC(=O)[C@H](C)NC(=O)[C@H](CC(=O)O)NC(=O)[C@H](CO)NC(=O)[C@H](Cc1c[nH]cn1)NC(C)=O)C(C)C)[C@@H](C)O)[C@@H](C)O)C(=O)N[C@@H](C)C(=O)N[C@@H](C)C(=O)N[C@@H](CCCCN)C(=O)N[C@H]1CCCCNC(=O)C[C@@H](C(=O)N[C@@H](CC(C)C)C(=O)N[C@@H](CCCCN)C(=O)N[C@@H](CCCCN)C(=O)NCC(=O)NCC(=O)N[C@H](C(N)=O)[C@@H](C)O)NC(=O)[C@H](CC(N)=O)NC(=O)[C@H](CC(C)C)NC(=O)[C@H](Cc2ccc(O)cc2)NC1=O

How the values were obtained:
VPAC2 receptor [1] = biological target: T1, VPAC2 receptor; test: Sup-T1 cAMP agonist assay; type: cell-based; conditions: human T-lymphoid cell line Sup-T1 expressing VPAC2 receptor; cAMP EIA; 5 min at room temperature; read-out: Sup-T1 cAMP EC50
How it was run: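 Sup-T1 human T-lymphoid cells with endogenous VPAC2 (RPMI 1640, 25 mM HEPES, 10% FBS) were plated at 4×10^4 cells/well and exposed to compound for 5 min at room temperature. After lysis, cAMP was measured by enzyme immunoassay. EC50 came from a sigmoidal fit of 7-concentration dose-response data.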

[2] = tested on: LPS-induced lung inflammation in male C57BL/6 mice; test: LPS-induced lung inflammation in male C57BL/6 mice (BAL neutrophilia); type: in vivo; conditions: BAL fluid neutrophilia
Protocol: C57bl/6 mice are pretreated with vehicle or drug prior to an aerosol expose to lipopolysacchride (LPS, 500 μg/ml in sterile saline) for 15-30 minutes. The aerosol is generated by a Pari Ultra neb jet nebulizer, the outlet of which is connected to a small clear plastic chamber [H×W×D, 10.7×25.7×11 cm (4×10×4.5 in)] containing the animals. Bronchoalveolar lavage (BAL) is performed 24 hr later to determine the intensity of cell inflammation. BAL procedure is performed as described below.
Mice are pretreated with vehicle or drug prior to an intranasal administration of lipopolysacchride (0.05-0.3 mg/kg in sterile saline; 50 μl total volume, 25 μl/nostril). Intranasal administration is performed by presenting small droplets of the dosing solution at the nostril using a 25-50 μl eppendorff pipet. BAL is performed 3 to 24 h post LPS challenged as described above to determine the intensity of cell inflammation.
24 h following LPS exposure, animals are anesthetized with pentobarbital (80-100 mg/kg, i.p.), ketamine/xyzaline (80-120 mg/kg/2-4 mg/kg, i.p.) or urethane (1.5-2.4 g/kg, i.p.); and through a small midline neck incision (15-20 mm), the trachea is exposed and cannulated with 20-gauge tubing adapter. Lungs are lavaged with 2×1 ml sterile Hank's balanced salt solution without Ca++ and Mg++(HBSS). Lavage fluid is recovered after 30 sec by gentle aspiration and pooled for each animal. Samples are then centrifuged at 2000 rpm for 10 minutes at 5° C. Supernatant is aspirated, and red blood cells are lysed from the resulting pellet with 0.5 ml distilled water for 30 sec before restoring osmolarity to the remaining cells by the addition of 5 ml of HBSS. Samples are recentrifuged at 2000 rpm for 10 minutes at 5° C. and supernatant aspirated. The resulting pellet is resuspended in 1 ml of HBSS. Total cell number is determined by Trypan Blue (Sigma Chemical, St. Louis, Mo.) exclusion from an aliquot of cell suspension using a hemocytometer or coulter counter. For differential cell counts, an aliquot of the cell suspension is centrifuged in a Cytospin (5 min, 1300 rpm; Shandon Southern Instruments, Sewickley, Pa.) and the slides fixed and stained with a modified Wright's stain (Hema 3 stain kit, Fisher Scientific). Standard morphological criteria is used in classifying at least 300 cells under light microscopy. Data in Table 3 is expressed as BAL cells×10^4/animal for neutrophils and total cells, or percent inhibition of the LPS induced BAL fluid neutrophilia response.

[3] = biological target: T2, human neutrophil elastase; test: Peptide stability to neutrophil elastase (RP HPLC ESI MS); conditions: halftime with human neutrophil elastase 1 to 2 μg/mL in PBS, ambient temperature, normalized to halftime of the reference standard
Protocol: The proteolytic stabilities of peptide analogs were established with reversed phase high pressure liquid chromatography (RP HPLC) electrospray ionization mass spectrometry (ESI MS). Peptide analogs were incubated with human neutrophile elastase and the quantity of undigested analogs was determined by ESI MS at appropriate time points. Multiple peptide analogs could be included in one experiment as long as they could be differentiated by HPLC retention time and/or by molecular weight. Ac-His Ac-[sequence]Nle-[sequence]NH2 was used in all experiments as a control and as a reference standard. The simultaneous use of multiple peptide analogs together with a reference standard allowed for compensation for variations in the proteolytic fidelity of the enzyme over the multiple experiments. Integrated ion currents obtained for the individual undigested peptide were used for quantitation. For calculation of halftime first-order kinetic behavior was assumed and all calculations were normalized to the halftime of the reference standard.
Peptide stock solutions were prepared in water to a concentration of 2.5 mg/mL. Unless in use, all stock solutions were kept at −20° C. […] Concentrations of the peptide analogs were adjusted accordingly. In order to do the proteolytic digestion, peptides were dissolved in phosphate buffered saline (PBS) to a concentration of 0.1 mg/mL. As many as six different peptide analogs were mixed into one 50 μL reaction volume. The reference standard was added to all experiments as a reference and internal standard. Elastase (Human Neutrophil, Calbiochem, Cat # 324681) was added from an elastase stock solution to a concentration of 1 to 2 μg/mL. Different amounts of the enzyme were chosen to compensate for the differences in the proteolytic stabilities of the peptide analogs. Previously, a stock solution of elastase was prepared in water at a concentration of 1 mg/mL. Small aliquots of the enzyme stock solution were kept at −20° C. to better maintain the enzyme activity by limiting the number of thaw and freeze cycles.
The digestion was done at ambient temperature in an autosampler tube within the autosampler of the HPLC system (Agilent 1100 Series). For a time course, 5 μL aliquots were injected in 70 minute intervals onto the reversed phase HPLC column (Phenomenex, Luna C18, 3μ, 100 ↑, 150×2.00 mm). For the starting time point an aliquot was injected just prior to the addition of the proteolytic enzyme. A total of eight time points could be recorded from one experiment, including the starting point. Peptides were separated on the reversed phase column with a 50 minute gradient of 5% to 30% organic phase. The aqueous phase was 0.05% (v/v) of trifluoroacetic acid in water and the organic one was 0.045% (v/v) of trifluoroacetic acid in acetonitrile. Absorbances were recorded at 214 and 280 nm respectively. All of the column effluent was introduced into the turbo V source of the electrospray ionization mass spectrometer (ABI 4000 QTrap LC/MS/MS System). Mass spectra were acquired in Q3MS mode in a mass range to include all triply charged ions of the non degraded peptide analogs. Care was taken to assure that peptide analogs could clearly be differentiated either by the chromatographic retention time or by the difference in molecular weight. Relative quantities of the respective undigested peptide analog were calculated from the integrated total ion current. A window of 2.5 Da was chosen and the manufacturer's software was used to integrate the individual ion currents. The overall halftime of an individual peptide analog was calculated by assuming first-order kinetic behavior and was normalized with respect to the halftime of the reference standard.

VPAC2 receptor [4] = biological target: T3, VPAC2 receptor; test: cell-based or functional assay

Row | Molecule | EC50 (VPAC2 receptor [1]) | Relative elastase stability [3] | Sup-T1 cAMP EC50 (VPAC2 receptor [4]) | other results
1 | CCCC[C@H](NC(=O)[C@H](CCC(N)=O)NC(=O)[C@H](CCCCN)NC(=O)[C@H](CCCNC(=N)N)NC(=O)[C@H](CC(C)C)NC(=O)[C@H](CCCCN)NC(=O)[C@@H](NC(=O)[C@H](Cc1ccc(O)cc1)NC(=O)[C@H](CC(N)=O)NC(=O)[C@H](CCC(=O)O)NC(=O)[C@@H](NC(=O)[C@H](Cc1ccccc1)NC(=O)[C@H](CO)NC(=O)[C@H](C)NC(=O)[C@H](CC(=O)O)NC(=O)[C@H](CO)NC(=O)[C@H](Cc1c[nH]cn1)NC(C)=O)C(C)O)C(C)O)C(=O)N[C@@H](C)C(=O)N[C@@H](C)C(=O)N[C@@H](CCCCN)C(=O)N[C@H]1CCCCNC(=O)C[C@@H](C(=O)N[C@@H](CC(C)C)C(=O)N[C@@H](CC(C)C)C(=O)N[C@@H](CC(N)=O)C(=O)NCC(=O)NCC(=O)N[C@H](C(N)=O)C(C)O)NC(=O)[C@H](CC(N)=O)NC(=O)[C@H](CC(C)C)NC(=O)[C@H](Cc2ccc(O)cc2)NC1=O (stereo partly shown) [Example 11] (Ac-HSDASF[Thr(3ξ)]ENY[Thr(3ξ)]KLRKQ[Nle]AAKKYLNDLLNGG[Thr(3ξ)]-NH2; lactam 21-25) | 16.8 nM | 2.4 | – | Inhibition of LPS-induced neutrophilia ([2]; Dose 0.01%): ++ (++ >30%)
2 | CCCC[C@H](NC(=O)[C@H](CCC(N)=O)NC(=O)[C@H](CCCCN)NC(=O)[C@H](CCCNC(=N)N)NC(=O)[C@H](CC(C)C)NC(=O)[C@H](CCCCN)NC(=O)[C@@H](NC(=O)[C@H](Cc1ccc(O)cc1)NC(=O)[C@H](CC(N)=O)NC(=O)[C@H](CCC(=O)O)NC(=O)[C@@H](NC(=O)[C@H](Cc1ccccc1)NC(=O)[C@H](CO)NC(=O)[C@H](C)NC(=O)[C@H](CC(=O)O)NC(=O)[C@H](CO)NC(=O)[C@H](Cc1c[nH]cn1)NC(C)=O)C(C)O)C(C)O)C(=O)N[C@@H](C)C(=O)N[C@@H](C)C(=O)N[C@@H](CCCCN)C(=O)N[C@H]1CCCCNC(=O)C[C@@H](C(=O)N[C@@H](CC(C)C)C(=O)N[C@@H](CCCCN)C(=O)N[C@@H](CCCCN)C(=O)NCC(=O)NCC(=O)N[C@H](C(N)=O)C(C)O)NC(=O)[C@H](CC(N)=O)NC(=O)[C@H](CC(C)C)NC(=O)[C@H](Cc2ccc(O)cc2)NC1=O (stereo partly shown) [Example 2] (Ac-HSDASF[Thr(3ξ)]ENY[Thr(3ξ)]KLRKQ[Nle]AAKKYLNDLKKGG[Thr(3ξ)]-NH2; lactam 21-25) | 69.7 nM | 5.2 | – | Inhibition of LPS-induced neutrophilia ([2]; Dose 0.1%): + (+ 10-30%)
3 | B1 | – | – | 9.45 nM | –
4 | B2 | – | – | 4.07 nM | –
5 | B3 | – | – | 4.75 nM | –
6 | B4 | – | – | 10.5 nM | –

From patent publication US20080096807A1, “Cyclic vasoactive intestinal peptide receptor-2 agonists” (priority 2006, published 2008)
